Measurements published in US8546443B2, “Benzylic oxindole pyrimidines” (Boehringer Ingelheim International GmbH, priority 2010, dated 2013).

target: T1, cytoplasmic kinase domain of human IGF-1R (IGF-1R-GST) (Homo sapiens, UniProt P08069); assay: Insulin-like growth factor-1 receptor (IGF-1R) kinase assay (DELFIA); type: biochemical; details: IGF-1R-GST kinase activity, read-out: IGF1R IC50
T1 construct: cytoplasmic kinase domain of human IGF-1R (amino acids 964-1370); GST (glutathione-S-transferase); made in house; host or cells: High Five insect cells (Invitrogen)
T1 sequence (P08069 964-1367 limits assumed): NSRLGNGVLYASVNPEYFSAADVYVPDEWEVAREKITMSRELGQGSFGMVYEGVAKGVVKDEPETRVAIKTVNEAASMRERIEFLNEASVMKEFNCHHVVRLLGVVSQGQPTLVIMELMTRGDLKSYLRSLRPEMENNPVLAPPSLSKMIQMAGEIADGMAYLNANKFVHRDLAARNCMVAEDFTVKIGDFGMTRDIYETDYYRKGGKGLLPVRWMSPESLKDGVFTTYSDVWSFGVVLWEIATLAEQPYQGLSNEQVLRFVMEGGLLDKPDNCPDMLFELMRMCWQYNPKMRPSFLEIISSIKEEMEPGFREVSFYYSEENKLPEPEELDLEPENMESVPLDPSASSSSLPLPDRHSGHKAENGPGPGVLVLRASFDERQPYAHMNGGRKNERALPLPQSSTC
Protocol: Insulin-Like Growth Factor-1 Receptor (IGF-1R)-Kinase Assay
The kinase activity is measured by DELFIA® assay (dissociation-enhanced lanthanide fluorescence immunoassay, Perkin Elmer). […] Enzyme activity is measured in the presence of substances and a control substance. Poly-glutamate-tyrosine peptide (pEY, Sigma Aldrich) and biotinylated pEY (bio-pEY) are used as reaction substrates.
After 40 min at RT the reactions are stopped with 50 μL of stop solution (250 mM EDTA, 20 mM HEPES pH 7.4). 90 μL from each reaction are transferred onto streptavidin-coated 96-well plates. After 120 min incubation at RT the plates are washed three times with 200 μL phosphate-buffered saline (PBS) per well. The plates are incubated for 60 min with 100 μL of europium-coupled antibody against phospho-tyrosine (diluted 1/2000 in Perkin Elmer DELFIA assay buffer) per well. The plates are washed three times with 200 μL per well of DELFIA washing buffer. 100 μL DELFIA Enhancement Solution (Perkin Elmer) is added to each well, and the plates are incubated for 10 min. The fluorescence signal is measured with a Wallac Victor TRF Reader. IC50 values for the inhibition of the IGF-1R-kinase activity are calculated using the programmes Fifty (Version 2) and GraphPad (Version 3.0).

Structure (SMILES)	IC50
COc1cc(N2CCN(C3CCN(C(C)=O)CC3)CC2)ccc1Nc1ncc(C(F)(F)F)c(NCc2cccc3c2CC(=O)N3)n1 [Example I-110]	8 nM
COc1cc(N2CCN(C3CCN(C(C)C)CC3)CC2)ccc1Nc1ncc(C(F)(F)F)c(NCc2cccc3c2CC(=O)N3)n1 [Example I-111]	18 nM
COc1cc(N2CCN(C3CCN(C4CC4)CC3)CC2)ccc1Nc1ncc(C(F)(F)F)c(NCc2cccc3c2CC(=O)N3)n1 [Example I-112]	5 nM
COc1cc(N2CCN(C3CCN(C4CCOCC4)CC3)CC2)ccc1Nc1ncc(C(F)(F)F)c(NCc2cccc3c2CC(=O)N3)n1 [Example I-115]	10 nM
COc1cc(N2CCN(C(C)C)CC2)ccc1Nc1ncc(C(F)(F)F)c(NCc2cccc3c2CC(=O)N3)n1 [Example I-116]	10 nM
COc1cc(N2CCN(C3CCN(C)CC3)CC2)ccc1Nc1ncc(C(F)(F)F)c(NCc2cccc3c2CC(=O)N3)n1 [Example I-117]	9 nM
COc1cc(N2CCN(C3CCOCC3)CC2)ccc1Nc1ncc(C(F)(F)F)c(NCc2cccc3c2CC(=O)N3)n1 [Example I-118]	11 nM
COc1cc(N2CCN(C)CC2)ccc1Nc1ncc(C(F)(F)F)c(NCc2cccc3c2CC(=O)N3)n1 [Example I-119]	11 nM
COc1cc(N2CCN(Cc3ccncc3)CC2)ccc1Nc1ncc(C(F)(F)F)c(NCc2cccc3c2CC(=O)N3)n1 [Example I-120]	49 nM
COc1cc(N2CCN(C3CCN(CCO)CC3)CC2)ccc1Nc1ncc(C(F)(F)F)c(NCc2cccc3c2CC(=O)N3)n1 [Example I-121]	16 nM
COCCN1CCC(N2CCN(c3ccc(Nc4ncc(C(F)(F)F)c(NCc5cccc6c5CC(=O)N6)n4)c(OC)c3)CC2)CC1 [Example I-122]	15 nM
COc1cc(N2CCN(C3CCN(C(=O)N(C)C)CC3)CC2)ccc1Nc1ncc(C(F)(F)F)c(NCc2cccc3c2CC(=O)N3)n1 [Example I-123]	12 nM
COc1cc(N2CCN(C3CCN(S(=O)(=O)N(C)C)CC3)CC2)ccc1Nc1ncc(C(F)(F)F)c(NCc2cccc3c2CC(=O)N3)n1 [Example I-124]	12 nM
COc1cc(N2CCN(C3CCN(S(C)(=O)=O)CC3)CC2)ccc1Nc1ncc(C(F)(F)F)c(NCc2cccc3c2CC(=O)N3)n1 [Example I-125]	15 nM
CN1CCN(c2ccc(Nc3ncc(C(F)(F)F)c(NCc4cccc5c4C(C)(C)C(=O)N5)n3)cn2)CC1 [Example I-133]	13 nM
CCc1cc(Nc2ncc(C(F)(F)F)c(NCc3cccc4c3CC(=O)N4)n2)c(OC)cc1N1CCN(C(C)C)CC1 [Example I-137]	65 nM
CCOc1cc(N2CCN(C)CC2)ccc1Nc1ncc(C(F)(F)F)c(NCc2cccc3c2CC(=O)N3)n1 [Example I-138]	13 nM
CCOc1cc(N2CCN(C(C)C)CC2)ccc1Nc1ncc(C(F)(F)F)c(NCc2cccc3c2CC(=O)N3)n1 [Example I-139]	8 nM
CCOc1cc(N2CCN(CC)CC2)ccc1Nc1ncc(C(F)(F)F)c(NCc2cccc3c2CC(=O)N3)n1 [Example I-140]	11 nM
CCOc1cc(N2CCN(C3COC3)CC2)ccc1Nc1ncc(C(F)(F)F)c(NCc2cccc3c2CC(=O)N3)n1 [Example I-141]	19 nM
COc1cc(N2CC3CC2CN3C2CCN(C)CC2)ccc1Nc1ncc(C(F)(F)F)c(NCc2cccc3c2C(C)(C)C(=O)N3)n1 (stereo not drawn) [Example I-147]	5 nM
COc1cc(N2CC3CC2CN3C2COC2)ccc1Nc1ncc(C(F)(F)F)c(NCc2cccc3c2C(C)(C)C(=O)N3)n1 (stereo not drawn) [Example I-154]	13 nM
CCOC(=O)N1CCC(N2CCN(c3ccc(Nc4ncc(C(F)(F)F)c(NCc5cccc6c5C(C)(C)C(=O)N6)n4)c(OC)c3)CC2)CC1 [Example I-163]	10 nM
COc1cc(N2CCN(Cc3ccco3)CC2)ccc1Nc1ncc(C(F)(F)F)c(NCc2cccc3c2C(C)(C)C(=O)N3)n1 [Example I-164]	14 nM

Compounds with a lower IC50, results first:

IC50	Structure (SMILES)
4 nM	CCN1CCC(N2CCN(c3ccc(Nc4ncc(C(F)(F)F)c(NCc5cccc6c5CC(=O)N6)n4)c(OC)c3)CC2)CC1 [Example I-114]
4 nM	CCOc1cc(N2CCN(C3COC3)CC2)ccc1Nc1ncc(C(F)(F)F)c(NCc2cccc3c2C(C)(C)C(=O)N3)n1 [Example I-146]
4 nM	COc1cc(N2CCN(C3COC3)CC2)ccc1Nc1ncc(C(F)(F)F)c(NCc2cccc3c2C(C)(C)C(=O)N3)n1 [Example I-156]
3 nM	COc1cc(N2CCN(C3CCN(CC#N)CC3)CC2)ccc1Nc1ncc(C(F)(F)F)c(NCc2cccc3c2CC(=O)N3)n1 [Example I-113]
3 nM	COc1cc(N2CCN(C3CCOCC3)CC2)ccc1Nc1ncc(C(F)(F)F)c(NCc2cccc3c2C(C)(C)C(=O)N3C)n1 [Example I-126]
3 nM	COc1cc(N2CCN(C)CC2)ccc1Nc1ncc(C(F)(F)F)c(NCc2cccc3c2C(C)(C)C(=O)N3C)n1 [Example I-127]
3 nM	COc1cc(N2CC3CC2CN3C2CCC2)ccc1Nc1ncc(C(F)(F)F)c(NCc2cccc3c2C(C)(C)C(=O)N3)n1 (stereo not drawn) [Example I-148]
3 nM	COc1cc(N2CC3CC2CN3C2CCOCC2)ccc1Nc1ncc(C(F)(F)F)c(NCc2cccc3c2C(C)(C)C(=O)N3)n1 (stereo not drawn) [Example I-150]
3 nM	COc1cc(N2CC3CC2CN3C(C)C)ccc1Nc1ncc(C(F)(F)F)c(NCc2cccc3c2C(C)(C)C(=O)N3)n1 (stereo not drawn) [Example I-152]
2 nM	COc1cc(N2CCN(C(C)C)CC2)ccc1Nc1ncc(C(F)(F)F)c(NCc2cccc3c2C(C)(C)C(=O)N3C)n1 [Example I-128]
2 nM	CCN1CCN(c2ccc(Nc3ncc(C(F)(F)F)c(NCc4cccc5c4C(C)(C)C(=O)N5C)n3)c(OC)c2)CC1 [Example I-129]
2 nM	COc1cc(N2CCN(C3CCN(C)CC3)CC2)ccc1Nc1ncc(C(F)(F)F)c(NCc2cccc3c2C(C)(C)C(=O)N3C)n1 [Example I-130]
2 nM	COc1cc(N2CCN(C(C)C)CC2)ccc1Nc1ncc(C(F)(F)F)c(NCc2cccc3c2C(C)(C)C(=O)N3)n1 [Example I-136]
2 nM	COc1cc(N2CC3CC2CN3CC2CC2)ccc1Nc1ncc(C(F)(F)F)c(NCc2cccc3c2C(C)(C)C(=O)N3)n1 (stereo not drawn) [Example I-149]
2 nM	COc1cc(N2CC3CC2CN3C)ccc1Nc1ncc(C(F)(F)F)c(NCc2cccc3c2C(C)(C)C(=O)N3)n1 (stereo not drawn) [Example I-151]
2 nM	CCN1CC2CC1CN2c1ccc(Nc2ncc(C(F)(F)F)c(NCc3cccc4c3C(C)(C)C(=O)N4)n2)c(OC)c1 (stereo not drawn) [Example I-153]
2 nM	COc1cc(N2CCN(C3CCN(C(C)=O)CC3)CC2)ccc1Nc1ncc(C(F)(F)F)c(NCc2cccc3c2C(C)(C)C(=O)N3)n1 [Example I-158]

IC50	Structure (SMILES)
2 nM	COc1cc(N2CCN(CC3CC3)CC2)ccc1Nc1ncc(C(F)(F)F)c(NCc2cccc3c2C(C)(C)C(=O)N3)n1 [Example I-162]
1 nM	CC(C)N1CCC(c2ccc(Nc3ncc(C(F)(F)F)c(NCc4cccc5c4C(C)(C)C(=O)N5)n3)cc2)CC1 [Example I-134]
1 nM	CCOc1cc(N2CCN(C(C)C)CC2)ccc1Nc1ncc(C(F)(F)F)c(NCc2cccc3c2C(C)(C)C(=O)N3)n1 [Example I-143]
1 nM	COc1cc(N2CCN(C3CCC3)CC2)ccc1Nc1ncc(C(F)(F)F)c(NCc2cccc3c2C(C)(C)C(=O)N3)n1 [Example I-155]
0.96 nM	CN1CCC(c2ccc(Nc3ncc(Cl)c(NCc4cccc5c4C4(CC4)C(=O)N5)n3)cc2)CC1 [Example I-161]
0.93 nM	COc1cc(N2CCN(C)[C@H](C)C2)ccc1Nc1ncc(C(F)(F)F)c(NCc2cccc3c2C(C)(C)C(=O)N3)n1 [Example I-108]
0.87 nM	COc1cc(N2CCN(C3CCC3)[C@H](C)C2)ccc1Nc1ncc(C(F)(F)F)c(NCc2cccc3c2C(C)(C)C(=O)N3)n1 [Example I-109]
0.81 nM	CCOc1cc(N2CCN(CC)CC2)ccc1Nc1ncc(C(F)(F)F)c(NCc2cccc3c2C(C)(C)C(=O)N3)n1 [Example I-144]
0.67 nM	CCOc1cc(N2CCN(C3CCN(C)CC3)CC2)ccc1Nc1ncc(C(F)(F)F)c(NCc2cccc3c2C(C)(C)C(=O)N3)n1 [Example I-145]
0.62 nM	CCN1CCN(c2ccc(Nc3ncc(C(F)(F)F)c(NCc4cccc5c4C(C)(C)C(=O)N5)n3)c(OC)c2)C[C@H]1C [Example I-107]
0.61 nM	CCN1CCN(c2ccc(Nc3ncc(C(F)(F)F)c(NCc4cccc5c4C(C)(C)C(=O)N5)n3)c(OC)c2)CC1 [Example I-157]
0.6 nM	COc1cc(N2CCN(C3CCN(C)CC3)[C@H](C)C2)ccc1Nc1ncc(C(F)(F)F)c(NCc2cccc3c2C(C)(C)C(=O)N3)n1 [Example I-132]
0.57 nM	COc1cc(N2CCN(C3CCN(C)CC3)CC2)ccc1Nc1ncc(C(F)(F)F)c(NCc2cccc3c2C(C)(C)C(=O)N3)n1 [Example I-135]
0.55 nM	CCOc1cc(N2CCN(C)CC2)ccc1Nc1ncc(C(F)(F)F)c(NCc2cccc3c2C(C)(C)C(=O)N3)n1 [Example I-142]
0.41 nM	COc1cc(C2CCN(C(C)C)CC2)ccc1Nc1ncc(C(F)(F)F)c(NCc2cccc3c2C(C)(C)C(=O)N3)n1 [Example I-159]
0.33 nM	COc1cc(N2CCN(CC3CC3)[C@H](C)C2)ccc1Nc1ncc(C(F)(F)F)c(NCc2cccc3c2C(C)(C)C(=O)N3)n1 [Example I-131]
